Measurements from patent US20120077737A1, “HEPATITIS C INHIBITOR COMPOUNDS” (priority 2009, published 2012).
Where two headings read alike, the source gives them in different places.

Key:
[1] = tested on: HCV genotype 1a subgenomic replicon with NS3 resistance mutation D168V; experiment: HCV replicon RNA replication assay, D168V 1a; format: cell-based, HCV genotype 1a (strain H77), Huh-7 cells; settings: Hepatitis C virus, read-out: D168V 1a Ec50 (nM)
[2] = tested on: HCV genotype 1b subgenomic replicon with NS3 resistance mutation D168V; experiment: HCV replicon RNA replication assay, D168V 1b; format: cell-based, HCV genotype 1b (Con-1), Huh-7 cells; settings: Hepatitis C virus, Huh-7, 72 h, read-out: D168V 1b Ec50 (nM)
[3] = tested on: HCV genotype 1a subgenomic replicon with NS3 resistance mutation R155K; experiment: HCV replicon RNA replication assay, R155K 1a; format: cell-based, HCV genotype 1a (strain H77), Huh-7 cells; settings: Hepatitis C virus, Huh-7, 72 h, read-out: R155K 1a Ec50 (nM)
[4] = tested on: HCVPV1a subgenomic replicon (wild type 1a); experiment: HCV replicon RNA replication assay, wild type 1a; format: cell-based, HCV genotype 1a (strain H77), Huh-7 cells; settings: Hepatitis C virus, read-out: WT 1a Ec50
[5] = tested on: HCVPV1b subgenomic replicon (wild type 1b); experiment: HCV replicon RNA replication assay, wild type 1b; format: cell-based, HCV genotype 1b (Con-1), Huh-7 cells; settings: Hepatitis C virus, read-out: WT 1b Ec50
[6] = Table 1, luciferase replicon, Huh-7, 72 h

Row | SMILES | EC50 ([1]; Huh-7, 72 h) [nM] | EC50 [2] [nM] | EC50 [3] [nM] | EC50 [4, 6] [nM] | EC50 [5, 6] [nM] | EC50 [1] [nM] | EC50 ([4]; Table 2, clinical comparators, wildtype genotype 1a) [nM] | EC50 ([5]; Table 2, clinical comparators, wildtype genotype 1b) [nM]
1 | COc1ccc2c(O[C@@H]3C[C@H]4C(=O)N[C@]5(C(=O)NS(=O)(=O)C6(C)CC6)C[C@H]5/C=C\CCCCC[C@H](NC(=O)c5ccn(CC(F)F)n5)C(=O)N4C3)cc(OC(C)C)nc2c1C [Compound 1001, (2R,6S,12Z,13aS,14aR,16aS)-6-({[1-(2,2-difluoroethyl)-1H-pyrazol-3-yl]carbonyl}amino)-2-{[7-methoxy-8-methyl-2-(propan-2-yloxy)quinolin-4-yl]oxy}-N-[(1-methylcyclopropyl)sulfonyl]-5,16-dioxo-1,2,3,6,7,8,9,10,11,13a,14,15,16,16a-tetradecahydrocyclopropa[e]pyrrolo[1,2-a][1,4]diazacyclopentadecine-14a(5H)-carboxamide] | 0.78 | 0.1 | 0.96 | 0.22 | 0.17 | – | – | –
2 | COCCn1ccc(C(=O)N[C@H]2CCCCC/C=C\[C@@H]3C[C@@]3(C(=O)NS(=O)(=O)C3(C)CC3)NC(=O)[C@@H]3C[C@@H](Oc4cc(OC(C)C)nc5c(C)c(OC)ccc45)CN3C2=O)n1 [Compound 1002, (2R,6S,12Z,13aS,14aR,16aS)-6-({[1-(2-methoxyethyl)-1H-pyrazol-3-yl]carbonyl}amino)-2-{[7-methoxy-8-methyl-2-(propan-2-yloxy)quinolin-4-yl]oxy}-N-[(1-methylcyclopropyl)sulfonyl]-5,16-dioxo-1,2,3,6,7,8,9,10,11,13a,14,15,16,16a-tetradecahydrocyclopropa[e]pyrrolo[1,2-a][1,4]diazacyclopentadecine-14a(5H)-carboxamide] | 2.8 | 0.12 | 1.5 | 0.38 | 0.32 | – | – | –
3 | Cc1c(Cl)ccc2c(O[C@@H]3C[C@H]4C(=O)N[C@]5(C(=O)NS(=O)(=O)C6(C)CC6)C[C@H]5/C=C\CCCCC[C@H](NC(=O)c5ccn(C)n5)C(=O)N4C3)cc(OC(C)C)nc12 [Compound 1003, (2R,6S,12Z,13aS,14aR,16aS)-2-{[7-chloro-8-methyl-2-(propan-2-yloxy)quinolin-4-yl]oxy}-N-[(1-methylcyclopropyl)sulfonyl]-6-{[(1-methyl-1H-pyrazol-3-yl)carbonyl]amino}-5,16-dioxo-1,2,3,6,7,8,9,10,11,13a,14,15,16,16a-tetradecahydrocyclopropa[e]pyrrolo[1,2-a][1,4]diazacyclopentadecine-14a(5H)-carboxamide] | 6.9 | 0.12 | 7.7 | 0.24 | 0.21 | – | – | –
4 | COc1ccc2c(O[C@@H]3C[C@H]4C(=O)N[C@]5(C(=O)NS(=O)(=O)C6(C)CC6)C[C@H]5/C=C\CCCCC[C@H](NC(=O)c5ccn(CCF)n5)C(=O)N4C3)cc(OC(C)C)nc2c1C [Compound 1004, (2R,6S,12Z,13aS,14aR,16aS)-6-({[1-(2-fluoroethyl)-1H-pyrazol-3-yl]carbonyl}amino)-2-{[7-methoxy-8-methyl-2-(propan-2-yloxy)quinolin-4-yl]oxy}-N-[(1-methylcyclopropyl)sulfonyl]-5,16-dioxo-1,2,3,6,7,8,9,10,11,13a,14,15,16,16a-tetradecahydrocyclopropa[e]pyrrolo[1,2-a][1,4]diazacyclopentadecine-14a(5H)-carboxamide] | 1.8 | 0.15 | 1.3 | 0.24 | 0.27 | – | – | –
5 | COc1ccc2c(O[C@@H]3C[C@H]4C(=O)N[C@]5(C(=O)NS(=O)(=O)C6(C)CC6)C[C@H]5/C=C\CCCCC[C@H](NC(=O)c5ccn(CC(F)(F)F)n5)C(=O)N4C3)cc(OC(C)C)nc2c1C [Compound 1005, (2R,6S,12Z,13aS,14aR,16aS)-2-{[7-methoxy-8-methyl-2-(propan-2-yloxy)quinolin-4-yl]oxy}-N-[(1-methylcyclopropyl)sulfonyl]-5,16-dioxo-6-({[1-(2,2,2-trifluoroethyl)-1H-pyrazol-3-yl]carbonyl}amino)-1,2,3,6,7,8,9,10,11,13a,14,15,16,16a-tetradecahydrocyclopropa[e]pyrrolo[1,2-a][1,4]diazacyclopentadecine-14a(5H)-carboxamide] | 1.4 | 0.17 | 0.85 | 0.18 | 0.16 | – | – | –
6 | COc1ccc2c(O[C@@H]3C[C@H]4C(=O)N[C@]5(C(=O)NS(=O)(=O)C6(C)CC6)C[C@H]5/C=C\CCCCC[C@H](NC(=O)c5cnn(C)n5)C(=O)N4C3)cc(OC(C)C)nc2c1C [Compound 1006, (2R,6S,12Z,13aS,14aR,16aS)-2-{[7-methoxy-8-methyl-2-(propan-2-yloxy)quinolin-4-yl]oxy}-N-[(1-methylcyclopropyl)sulfonyl]-6-{[(2-methyl-2H-1,2,3-triazol-4-yl)carbonyl]amino}-5,16-dioxo-1,2,3,6,7,8,9,10,11,13a,14,15,16,16a-tetradecahydrocyclopropa[e]pyrrolo[1,2-a][1,4]diazacyclopentadecine-14a(5H)-carboxamide] | 9.6 | 0.17 | 2.2 | 0.19 | 0.18 | – | – | –
7 | COc1ccc2c(O[C@@H]3C[C@H]4C(=O)N[C@]5(C(=O)NS(=O)(=O)C6(C)CC6)C[C@H]5/C=C\CCCCC[C@H](NC(=O)c5ccn(C)n5)C(=O)N4C3)cc(OC(C)C)nc2c1C [Compound 1007, (2R,6S,12Z,13aS,14aR,16aS)-2-{[7-methoxy-8-methyl-2-(propan-2-yloxy)quinolin-4-yl]oxy}-N-[(1-methylcyclopropyl)sulfonyl]-6-{[(1-methyl-1H-pyrazol-3-yl)carbonyl]amino}-5,16-dioxo-1,2,3,6,7,8,9,10,11,13a,14,15,16,16a-tetradecahydrocyclopropa[e]pyrrolo[1,2-a][1,4]diazacyclopentadecine-14a(5H)-carboxamide] | 4.5 | 0.18 | 1.7 | 0.25 | 0.2 | – | – | –
8 | Cc1c(F)ccc2c(O[C@@H]3C[C@H]4C(=O)N[C@]5(C(=O)NS(=O)(=O)C6(C)CC6)C[C@H]5/C=C\CCCCC[C@H](NC(=O)c5ccn(C)n5)C(=O)N4C3)cc(OC(C)C)nc12 [Compound 1008, (2R,6S,12Z,13aS,14aR,16aS)-2-{[7-fluoro-8-methyl-2-(propan-2-yloxy)quinolin-4-yl]oxy}-N-[(1-methylcyclopropyl)sulfonyl]-6-{[(1-methyl-1H-pyrazol-3-yl)carbonyl]amino}-5,16-dioxo-1,2,3,6,7,8,9,10,11,13a,14,15,16,16a-tetradecahydrocyclopropa[e]pyrrolo[1,2-a][1,4]diazacyclopentadecine-14a(5H)-carboxamide] | 6.6 | 0.2 | 1.9 | 0.24 | 0.35 | – | – | –
9 | COCc1ccc(C(=O)N[C@H]2CCCCC/C=C\[C@@H]3C[C@@]3(C(=O)NS(=O)(=O)C3CC3)NC(=O)[C@@H]3C[C@@H](Oc4cc(OC(C)C)nc5c(C)c(OC)ccc45)CN3C2=O)s1 [Compound 1009, (2R,6S,12Z,13aS,14aR,16aS)-N-(cyclopropylsulfonyl)-2-{[7-methoxy-8-methyl-2-(propan-2-yloxy)quinolin-4-yl]oxy}-6-({[5-(methoxymethyl)thiophen-2-yl]carbonyl}amino)-5,16-dioxo-1,2,3,6,7,8,9,10,11,13a,14,15,16,16a-tetradecahydrocyclopropa[e]pyrrolo[1,2-a][1,4]diazacyclopentadecine-14a(5H)-carboxamide] | 7.2 | 0.24 | 3.6 | 0.43 | 0.46 | – | – | –
10 | COc1ccc2c(O[C@@H]3C[C@H]4C(=O)N[C@]5(C(=O)NS(=O)(=O)C6CC6)C[C@H]5/C=C\CCCCC[C@H](NC(=O)c5ccn(CC(F)(F)F)n5)C(=O)N4C3)cc(OC(C)C)nc2c1C [Compound 1012, (2R,6S,12Z,13aS,14aR,16aS)-N-(cyclopropylsulfonyl)-2-{[7-methoxy-8-methyl-2-(propan-2-yloxy)quinolin-4-yl]oxy}-5,16-dioxo-6-({[1-(2,2,2-trifluoroethyl)-1H-pyrazol-3-yl]carbonyl}amino)-1,2,3,6,7,8,9,10,11,13a,14,15,16,16a-tetradecahydrocyclopropa[e]pyrrolo[1,2-a][1,4]diazacyclopentadecine-14a(5H)-carboxamide] | 1.9 | 0.31 | – | 0.29 | 0.24 | – | – | –
11 | COc1ccc2c(O[C@@H]3C[C@H]4C(=O)N[C@]5(C(=O)NS(=O)(=O)C6(C)CC6)C[C@H]5/C=C\CCCCC[C@H](NC(=O)c5ccn(C)n5)C(=O)N4C3)cc(OCC(F)(F)F)nc2c1C [Compound 1029, (2R,6S,12Z,13aS,14aR,16aS)-2-{[7-methoxy-8-methyl-2-(2,2,2-trifluoroethoxy)quinolin-4-yl]oxy}-N-[(1-methylcyclopropyl)sulfonyl]-6-{[(1-methyl-1H-pyrazol-3-yl)carbonyl]amino}-5,16-dioxo-1,2,3,6,7,8,9,10,11,13a,14,15,16,16a-tetradecahydrocyclopropa[e]pyrrolo[1,2-a][1,4]diazacyclopentadecine-14a(5H)-carboxamide] | 9.5 | 0.25 | 1.5 | – | – | – | – | –
12 | CC[C@@H]1C[C@]1(NC(=O)[C@@H]1C[C@@H]2CN1C(=O)[C@H](C(C)(C)C)NC(=O)OCC(C)(C)CCCCc1cccc3c1CN(C3)C(=O)O2)C(=O)NS(=O)(=O)C1CC1 [reference compound] | – | – | – | – | – | 3900 | 0.4 | 1.2
